Reference: patent US4471131A, “Novel silyl esters of N-phosphonomethylglycine” (Monsanto Company, priority 1983, dated 1984)

Tests used:
Assay in all cases: post-emergence herbicidal activity, greenhouse
Assay type in all cases: in vivo
Barnyardgrass = tested on: Barnyardgrass
Outline: (§1)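 Foliar spray, chamber, atomizer; plants 2–3 weeks old in topsoil pans; emulsifier ~0.4% by weight; rates as listed. Rating: injury relative to controls, ~2 and ~4 WAT.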

Canada Thistle = details: Table II, formulated immediately prior to treatment
Outline: as §1

Cocklebur = tested on: Cocklebur
Outline: as §1

Common Lambsquarters = tested on: Common Lambsquarters
Outline: as §1

Downy Brome = tested on: Downy Brome
Outline: as §1

Hemp Sesbania = details: Table III, 2 WAT
Outline: as §1

Johnsongrass = details: Table II, formulated immediately prior to treatment
Outline: as §1

Large Crabgrass = details: Table III; 2 WAT; 5.6 kg/h
Outline: as §1

Morningglory = tested on: Morningglory
Outline: as §1

Panicum Spp = details: Table III; 2 WAT; 5.6 kg/h
Outline: as §1

Pennsylvania Smartweed = tested on: Pennsylvania Smartweed
Outline: as §1

Quackgrass = details: Table II, formulated immediately prior to treatment
Outline: (§2)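 The readout is plant injury compared with untreated pans, taken at two time points, about two and four weeks after spraying. Plants had grown two to three weeks in greenhouse topsoil pans before atomizer treatment.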

Rice = details: Table III, 2 WAT
Outline: as §1

Soybean = details: Table III, 2 WAT
Outline: as §1

Sugar Beet = details: Table III; 2 WAT; 5.6 kg/h
Outline: as §1

Velvetleaf = tested on: Velvetleaf
Outline: as §1

Wild Buckwheat = details: Table III, 2 WAT
Outline: as §1

Yellow Nutsedge = details: Table II, formulated immediately prior to treatment
Outline: as §2

[1] = Table II, 2 WAT, 5.6 kg/h, formulated immediately prior to treatment
[2] = Table II, 2 WAT, 11.2 kg/h, formulated immediately prior to treatment
[3] = Table II, 4 WAT, 5.6 kg/h, formulated immediately prior to treatment
[4] = Table II, 4 WAT, 11.2 kg/h, formulated immediately prior to treatment

Structure (SMILES): CC(C)(C)[Si](C)(C)OP(=O)(CNCC(=O)OCCc1ccccc1)O[Si](C)(C)C(C)(C)C [Ex. 10, Glycine, N--((Bis[((1,1-Dimethylethyl)Dimethylsilyl)Oxy]Phosphinyl)Methyl)-,2-Phenylethyl Ester Hydrate]
- Plant Response Index (K) (Barnyardgrass; [1]): 1 (25-49% inhibition)
- Plant Response Index (K) (Barnyardgrass; [2]): 2 (50-74% inhibition)
- Plant Response Index (K) (Barnyardgrass; [3]): 2 (50-74% inhibition)
- Plant Response Index (K) (Barnyardgrass; [4]): 3 (75-99% inhibition)
- Plant Response Index (K) (Barnyardgrass; Table III, 2 WAT, 5.6 kg/h): 2 (50-74% inhibition)
- Plant Response Index (A) (Canada Thistle; 2 WAT, 5.6 kg/h): 0 (0-24% inhibition)
- Plant Response Index (A) (Canada Thistle; 2 WAT, 11.2 kg/h): 2 (50-74% inhibition)
- Plant Response Index (A) (Canada Thistle; 4 WAT, 5.6 kg/h): 0 (0-24% inhibition)
- Plant Response Index (A) (Canada Thistle; 4 WAT, 11.2 kg/h): 2 (50-74% inhibition)
- Plant Response Index (B) (Cocklebur; [1]): 1 (25-49% inhibition)
- Plant Response Index (B) (Cocklebur; [2]): 2 (50-74% inhibition)
- Plant Response Index (B) (Cocklebur; [3]): 0 (0-24% inhibition)
- Plant Response Index (B) (Cocklebur; [4]): 2 (50-74% inhibition)
- Plant Response Index (B) (Cocklebur; Table III, 2 WAT, 1.1 kg/h): 0 (0-24% inhibition)
- Plant Response Index (B) (Cocklebur; Table III, 2 WAT, 5.6 kg/h): 2 (50-74% inhibition)
- Plant Response Index (E) (Common Lambsquarters; [1]): 2 (50-74% inhibition)
- Plant Response Index (E) (Common Lambsquarters; [2]): 3 (75-99% inhibition)
- Plant Response Index (E) (Common Lambsquarters; [3]): 3 (75-99% inhibition)
- Plant Response Index (E) (Common Lambsquarters; [4]): 3 (75-99% inhibition)
- Plant Response Index (E) (Common Lambsquarters; Table III, 2 WAT, 1.1 kg/h): 2 (50-74% inhibition)
- Plant Response Index (E) (Common Lambsquarters; Table III, 2 WAT, 5.6 kg/h): 3 (75-99% inhibition)
- Plant Response Index (J) (Downy Brome; [1]): 0 (0-24% inhibition)
- Plant Response Index (J) (Downy Brome; [2]): 1 (25-49% inhibition)
- Plant Response Index (J) (Downy Brome; [3]): 0 (0-24% inhibition)
- Plant Response Index (J) (Downy Brome; [4]): 1 (25-49% inhibition)
- Plant Response Index (J) (Downy Brome; Table III, 2 WAT, 1.1 kg/h): 0 (0-24% inhibition)
- Plant Response Index (J) (Downy Brome; Table III, 2 WAT, 5.6 kg/h): 1 (25-49% inhibition)
- Plant Response Index (R) (Hemp Sesbania; 1.1 kg/h): 0 (0-24% inhibition)
- Plant Response Index (R) (Hemp Sesbania; 5.6 kg/h): 0 (0-24% inhibition)
- Plant Response Index (I) (Johnsongrass; 2 WAT, 5.6 kg/h): 0 (0-24% inhibition)
- Plant Response Index (I) (Johnsongrass; 2 WAT, 11.2 kg/h): 1 (25-49% inhibition)
- Plant Response Index (I) (Johnsongrass; 4 WAT, 5.6 kg/h): 0 (0-24% inhibition)
- Plant Response Index (I) (Johnsongrass; 4 WAT, 11.2 kg/h): 1 (25-49% inhibition)
- Plant Response Index (T) (Large Crabgrass): 3 (75-99% inhibition)
- Plant Response Index (D) (Morningglory; [1]): 1 (25-49% inhibition)
- Plant Response Index (D) (Morningglory; [2]): 2 (50-74% inhibition)
- Plant Response Index (D) (Morningglory; [3]): 0 (0-24% inhibition)
- Plant Response Index (D) (Morningglory; [4]): 2 (50-74% inhibition)
- Plant Response Index (D) (Morningglory; Table III, 2 WAT, 5.6 kg/h): 0 (0-24% inhibition)
- Plant Response Index (S) (Panicum Spp): 3 (75-99% inhibition)
- Plant Response Index (F) (Pennsylvania Smartweed; [1]): 1 (25-49% inhibition)
- Plant Response Index (F) (Pennsylvania Smartweed; [2]): 3 (75-99% inhibition)
- Plant Response Index (F) (Pennsylvania Smartweed; [3]): 1 (25-49% inhibition)
- Plant Response Index (F) (Pennsylvania Smartweed; [4]): 3 (75-99% inhibition)
- Plant Response Index (F) (Pennsylvania Smartweed; Table III, 2 WAT, 1.1 kg/h): 2 (50-74% inhibition)
- Plant Response Index (F) (Pennsylvania Smartweed; Table III, 2 WAT, 5.6 kg/h): 2 (50-74% inhibition)
- Plant Response Index (H) (Quackgrass; 2 WAT, 5.6 kg/h): 0 (0-24% inhibition)
- Plant Response Index (H) (Quackgrass; 2 WAT, 11.2 kg/h): 1 (25-49% inhibition)
- Plant Response Index (H) (Quackgrass; 4 WAT, 5.6 kg/h): 0 (0-24% inhibition)
- Plant Response Index (H) (Quackgrass; 4 WAT, 11.2 kg/h): 1 (25-49% inhibition)
- Plant Response Index (O) (Rice; 1.1 kg/h): 0 (0-24% inhibition)
- Plant Response Index (O) (Rice; 5.6 kg/h): 0 (0-24% inhibition)
- Plant Response Index (L) (Soybean; 1.1 kg/h): 0 (0-24% inhibition)
- Plant Response Index (L) (Soybean; 5.6 kg/h): 0 (0-24% inhibition)
- Plant Response Index (M) (Sugar Beet): 3 (75-99% inhibition)
- Plant Response Index (C) (Velvetleaf; [1]): 0 (0-24% inhibition)
- Plant Response Index (C) (Velvetleaf; [2]): 2 (50-74% inhibition)
- Plant Response Index (C) (Velvetleaf; [3]): 0 (0-24% inhibition)
- Plant Response Index (C) (Velvetleaf; [4]): 2 (50-74% inhibition)
- Plant Response Index (C) (Velvetleaf; Table III, 2 WAT, 5.6 kg/h): 2 (50-74% inhibition)
- Plant Response Index (Q) (Wild Buckwheat; 1.1 kg/h): 0 (0-24% inhibition)
- Plant Response Index (Q) (Wild Buckwheat; 5.6 kg/h): 0 (0-24% inhibition)
- Plant Response Index (G) (Yellow Nutsedge; 2 WAT, 5.6 kg/h): 1 (25-49% inhibition)
- Plant Response Index (G) (Yellow Nutsedge; 2 WAT, 11.2 kg/h): 2 (50-74% inhibition)
- Plant Response Index (G) (Yellow Nutsedge; 4 WAT, 5.6 kg/h): 2 (50-74% inhibition)
- Plant Response Index (G) (Yellow Nutsedge; 4 WAT, 11.2 kg/h): 2 (50-74% inhibition)
